Structures can show the parent of a compound that is named as a salt.
Target: T1, recombinant guanylate cyclase reporter cell line (Rattus norvegicus, UniProt P19686+P20595)
T1 construct: expressed in transfected cells
T1 sequence (P20595 1-619): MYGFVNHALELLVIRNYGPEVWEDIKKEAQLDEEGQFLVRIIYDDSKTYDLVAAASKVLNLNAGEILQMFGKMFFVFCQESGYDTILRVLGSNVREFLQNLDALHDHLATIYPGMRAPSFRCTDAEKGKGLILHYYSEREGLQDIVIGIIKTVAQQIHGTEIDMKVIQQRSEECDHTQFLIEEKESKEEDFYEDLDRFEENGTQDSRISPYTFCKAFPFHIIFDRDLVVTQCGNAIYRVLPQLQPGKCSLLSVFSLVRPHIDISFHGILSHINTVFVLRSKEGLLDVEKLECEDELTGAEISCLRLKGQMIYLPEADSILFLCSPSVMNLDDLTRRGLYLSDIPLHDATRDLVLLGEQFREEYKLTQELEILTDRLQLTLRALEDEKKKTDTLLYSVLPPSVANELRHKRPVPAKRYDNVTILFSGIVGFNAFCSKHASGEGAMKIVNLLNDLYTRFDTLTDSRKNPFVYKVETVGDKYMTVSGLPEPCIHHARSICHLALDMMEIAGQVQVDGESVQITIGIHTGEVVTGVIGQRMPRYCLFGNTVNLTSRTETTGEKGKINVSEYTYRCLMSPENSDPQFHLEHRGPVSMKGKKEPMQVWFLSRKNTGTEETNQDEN
T1 sequence (P19686 1-690): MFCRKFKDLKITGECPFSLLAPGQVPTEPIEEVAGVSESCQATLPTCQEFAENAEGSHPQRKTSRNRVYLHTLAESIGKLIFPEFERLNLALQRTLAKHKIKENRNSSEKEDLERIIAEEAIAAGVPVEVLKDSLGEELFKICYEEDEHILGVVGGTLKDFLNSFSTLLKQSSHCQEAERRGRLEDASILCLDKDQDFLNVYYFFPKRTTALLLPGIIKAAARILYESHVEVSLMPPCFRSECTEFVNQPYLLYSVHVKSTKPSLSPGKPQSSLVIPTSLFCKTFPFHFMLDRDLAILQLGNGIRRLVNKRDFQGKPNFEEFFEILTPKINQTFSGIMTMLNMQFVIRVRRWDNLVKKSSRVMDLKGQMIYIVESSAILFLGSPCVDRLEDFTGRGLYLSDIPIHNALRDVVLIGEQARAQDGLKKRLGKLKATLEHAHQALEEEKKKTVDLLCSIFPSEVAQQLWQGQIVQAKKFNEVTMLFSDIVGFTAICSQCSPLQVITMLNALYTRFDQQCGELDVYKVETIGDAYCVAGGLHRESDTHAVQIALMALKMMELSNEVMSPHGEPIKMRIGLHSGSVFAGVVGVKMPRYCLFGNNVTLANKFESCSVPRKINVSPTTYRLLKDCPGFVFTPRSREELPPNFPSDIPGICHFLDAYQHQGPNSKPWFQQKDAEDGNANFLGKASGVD
Experiment: Action on recombinant guanylate cyclase reporter cell line
Format: cell-based
Conditions: in some cases mean values obtained from individual determinations
In short: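 Cell-based reporter assay with recombinant guanylate cyclase expressed in a reporter cell line, per a published method. Activity reported as minimal effective concentration (MEC), in some cases as the mean of individual determinations.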

MEC (minimal effective concentration) [µM]	SMILES
0.03	Cc1nc2c(OCc3c(F)cccc3F)cccn2c1C(=O)NC(CO)CC(F)(F)F (racemic) [Example 100, rac-8-[(2,6-Difluorobenzyl)oxy]-2-methyl-N-(4,4,4-trifluoro-hydroxybutan-2-yl)imidazo[1,2-a]-pyridine-3-carboxamide trifluoroacetate]
0.1	CSCC[C@H](CO)NC(=O)c1c(C)nc2c(OCc3c(F)cccc3F)cccn12 [Example 25]
0.3	Cc1nc2c(OCc3c(F)cccc3F)cccn2c1C(=O)N[C@@H]1CCC[C@@H]1O [Example 37]
1.0	CCCC[C@H](CO)NC(=O)c1c(C)nc2c(OCc3c(F)cccc3F)cc(C3CC3)cn12 [Example 61, 6-cyclopropyl-8-[(2,6-difluorobenzyl)oxy]-N-[(2R)-1-hydroxyhexan-2-yl]-2-methylimidazo[1,2-a]pyridine-3-carboxamide]
3.0	Cc1nc2c(OCc3c(F)cccc3F)cccn2c1C(=O)NCC(O)COc1ccccc1 (stereo not drawn) [Example 137, 8-[(2,6-difluorobenzyl)oxy]-N-(2-hydroxy-3-phenoxypropyl)-2-methylimidazo[1,2-a]-pyridine-3-carboxamide]
0.22	Cc1nc2c(OCC3CCCCC3)cccn2c1C(=O)N[C@@H](C)CO [Example 75, 8-(cyclohexylmethoxy)-N-[(2S)-1-hydroxypropan-2-yl]-2-methylimidazo[1,2-a]pyridine-3-carboxamide]
0.3	Cc1nc2c(OCc3c(F)cccc3F)cccn2c1C(=O)NC(CO)C(F)(F)F (racemic) [Example 110, rac-8-[(2,6-Difluorobenzyl)oxy]-2-methyl-N-(1,1,1-trifluoro-3-hydroxypropan-2-yl)imidazo[1,2-a]pyridine-3-carboxamide]
0.1	C#Cc1cc(OCc2c(F)cccc2F)c2nc(C)c(C(=O)N[C@@H](CO)CCCC)n2c1 [Example 126, 8-[(2,6-Difluorobenzyl)oxy]-6-ethynyl-N-[(2R)-hydroxyhexan-2-yl]-2-methylimidazo[1,2-a]-pyridine-3-carboxamide]
0.1	Cc1nc2c(OCc3c(F)cccc3F)cccn2c1C(=O)N[C@H]1c2ccccc2C[C@H]1O [Example 40, 8-[(2,6-difluorobenzyl)oxy]-N-[(1S,2R)-2-hydroxy-2,3-dihydro-1H-inden-1-yl]-2-methylimidazo[1,2-a]pyridine-3-carboxamide]
0.65	Cc1nc2c(OCc3ncccc3F)cccn2c1C(=O)NC(CCCC(F)(F)F)C(C)(C)O (single isomer, unassigned; ent-8) [Example 182, ent-8-[(3-fluoropyridin-2-yl)methoxy]-2-methyl-N-(7,7,7-trifluoro-2-hydroxy-2-methylheptan-3-yl)imidazo[1,2-a]pyridine-3-carboxamide (enantiomer A)]
0.3	CCC(O)CNC(=O)c1c(C)nc2c(OCc3c(F)cccc3F)cccn12 (stereo not drawn) [Example 30]
0.3	CCCC[C@H](CO)NC(=O)c1c(C)nc2c(OCc3c(F)c(F)cc(F)c3F)cccn12 [Example 7]
0.03	Cc1nc2c(OCc3c(F)cccc3F)cccn2c1C(=O)N[C@@H](CO)CC(C)C [Example 39, 8-[(2,6-Difluorobenzyl)oxy]-N-[(2R)-1-hydroxy-4-methylpentan-2-yl]-2-methylimidazo[1,2-a]-pyridine-3-carboxamide]
1	Cc1cc(OCc2c(F)cncc2F)c2nc(C)c(C(=O)NC(CCCC(F)(F)F)C(C)(C)O)n2c1 (single isomer, unassigned; ent-8) [Example 189, ent-8-[(3,5-difluoropyridine-4-yl)methoxy]-2,6-dimethyl-N-(7,7,7-trifluoro-2-hydroxy-2-methylheptan-3-yl)imidazo[1,2-a]pyridine-3-carboxamide (enantiomer A)]
1.5	CCCC[C@H](CO)NC(=O)c1c(C)nc2c(OCc3cccc(C)c3F)cccn12 [Example 11]
